Results reported in article PMC10037499, “High-Throughput Screen Reveals the Structure–Activity Relationship of the Antimicrobial Lasso Peptide Ubonodin” (ACS Central Science, 2023).
Where a SMILES comes first, the peptide text is derived from it.

System: E. coli MC1061
Assay: Spot dilution assay of E. coli producing the ubonodin variant from pUboABC
Assay type: cell-based
Conditions: variant in pUboABC backbone in E. coli MC1061, induction with 100 μM IPTG, ten-fold serial dilutions, biological duplicates
Method in brief: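 E. coli MC1061 carrying the plasmids was grown at 37 °C in LB with 100 μg/mL ampicillin to OD600 0.3, then induced with 100 μM IPTG. Samples taken before induction and at later timepoints were PBS-washed, spotted as ten-fold dilutions on ampicillin/0.2% glucose LB plates, and imaged after 16 h at 37 °C.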

In the case of `CC[C@H](C)[C@@H]1NC(=O)[C@H](CO)NC(=O)CNC(=O)[C@H](CC(=O)O)NC(=O)CNC(=O)CNC(=O)CC[C@@H](C(=O)N[C@@H](Cc2ccc(O)cc2)C(=O)N[C@@H](Cc2ccccc2)C(=O)N[C@@H](CC(N)=O)C(=O)N[C@@H](CCCNC(=N)N)C(=O)N2CCC[C@H]2C(=O)N[C@@H](CCSC)C(=O)N[C@@H](Cc2c[nH]cn2)C(=O)N[C@H](C(=O)N[C@@H](Cc2c[nH]cn2)C(=O)N[C@@H](CC(=O)O)C(=O)N[C@@H](Cc2c[nH]c3ccccc23)C(=O)N[C@@H](CCC(N)=O)C(=O)N[C@H](C(=O)N[C@@H](CCSC)C(=O)N[C@@H](CC(=O)O)C(=O)N[C@@H](CO)C(=O)NCC(=O)N[C@@H](Cc2ccc(O)cc2)C(=O)N[C@@H](Cc2ccc(O)cc2)C(=O)NCC(=O)O)[C@@H](C)CC)[C@@H](C)CC)NC(=O)[C@H](C)NC1=O` [WT, ubonodin] (HELM PEPTIDE1{G.G.D.G.S.I.A.E.Y.F.N.R.P.M.H.I.H.D.W.Q.I.M.D.S.G.Y.Y.G}$PEPTIDE1,PEPTIDE1,1:R1-8:R3$$$V2.0; C-terminus assumed), the “Inhibits Growth” value was “Yes”.
